{
  "source": "paper PMC4084896",
  "about": "(PLoS ONE, 2014)",
  "key": {"[1]": {"target": "T1, aryl hydrocarbon receptor AhR (Homo sapiens, UniProt P35869)", "T1 construct": "endogenous in cells; host or cells: AZ-AHR (stably transfected reporter line derived from HepG2)", "T1 sequence (P35869 11-848)": "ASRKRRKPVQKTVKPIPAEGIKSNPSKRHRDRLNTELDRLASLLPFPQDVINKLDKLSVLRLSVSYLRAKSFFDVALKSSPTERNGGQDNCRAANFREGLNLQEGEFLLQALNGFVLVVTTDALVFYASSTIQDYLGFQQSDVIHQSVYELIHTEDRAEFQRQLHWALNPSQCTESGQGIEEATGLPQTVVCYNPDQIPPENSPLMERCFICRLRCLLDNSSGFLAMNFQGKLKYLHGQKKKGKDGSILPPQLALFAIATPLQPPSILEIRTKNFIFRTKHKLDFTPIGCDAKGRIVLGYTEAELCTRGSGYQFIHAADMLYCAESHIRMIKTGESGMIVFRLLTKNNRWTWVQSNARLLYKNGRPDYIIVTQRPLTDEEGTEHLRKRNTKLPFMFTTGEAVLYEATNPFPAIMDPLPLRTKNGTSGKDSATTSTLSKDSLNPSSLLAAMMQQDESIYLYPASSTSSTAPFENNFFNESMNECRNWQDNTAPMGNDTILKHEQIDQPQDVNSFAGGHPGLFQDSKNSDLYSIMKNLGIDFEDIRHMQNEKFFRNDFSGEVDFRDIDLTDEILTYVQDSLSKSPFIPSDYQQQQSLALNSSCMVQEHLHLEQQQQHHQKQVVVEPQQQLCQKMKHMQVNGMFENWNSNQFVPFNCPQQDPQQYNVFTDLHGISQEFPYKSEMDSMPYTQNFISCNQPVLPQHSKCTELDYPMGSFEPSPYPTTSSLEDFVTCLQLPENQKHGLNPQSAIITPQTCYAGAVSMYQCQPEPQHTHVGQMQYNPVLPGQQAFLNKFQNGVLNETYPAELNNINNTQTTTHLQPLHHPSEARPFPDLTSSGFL", "experiment": "AhR gene reporter assay in AZ-AHR cells, agonist mode", "format": "cell-based", "conditions": "5 nM TCDD, four passages", "description": "A stably transfected gene reporter cell line AZ-AHR, derived from human hepatoma HepG2 cells transfected with a construct containing several AhR binding sites upstream of a luciferase reporter gene, was used for assessment of AhR transcriptional activity. A stably transfected gene reporter cell line AZ-GR, derived from human cervix carcinoma HeLa cells transfected with a construct containing several GR response elements upstream of a luciferase reporter gene, was used for assessment of GR transcriptional activity. Cells were incubated for 24 h with tested compounds and/or vehicle (DMSO; 0.1% v/v), in the presence or absence of TCDD (5 nM; AZ-AHR cells) or DEX (100 nM; AZ-GR cells). After the treatments, cells were lysed and luciferase activity was measured. In parallel, cell viability was determined by conventional MTT test.\nGene reporter assays were performed in two different experimental layouts. In agonist mode, cells were treated with increasing concentrations of tested compounds, and the half-maximal effective concentrations (EC50) were calculated."}, "CYP1A1 mRNA [2]": {"tested_on": "CYP1A1 mRNA", "experiment": "in vitro", "conditions": "human, 24 h", "description": "(§1) Primary human hepatocytes used in this study were obtained from two sources: (i) from multiorgan donors LH52 (female; 60 years) and LH54 (person), when: a) Tissue acquisition protocol was in accordance with the requirements issued by “Ethical Committee of the Faculty Hospital Olomouc, Czech Republic” and with Transplantation law #285/2002 Sb., b) “Ethical Committee of the Faculty Hospital Olomouc, Czech Republic” approved the study and the use of primary human hepatocytes for research presented in the current paper., c) The consent from the next of kin of the donor was waived by “Ethical Committee of the Faculty Hospital Olomouc, Czech Republic”; (ii) long-term human hepatocytes in monolayer Batch HEP220770 (person), Batch HEP220774 (person) (purchased from Biopredic International, Rennes, France). Cells were cultured in serum-free medium. Cultures were maintained at 37°C and 5% CO2 in a humidified incubator.\n(§2) Total RNA was isolated using TRI Reagent (Molecular Research Center, Cincinnati, OH, USA). cDNA was synthesized from 1000 ng of total RNA using M-MLV Reverse Transcriptase (Finnzymes, Espoo, Finland) at 42°C for 60 min in the presence of random hexamers (Takara, Shiga, Japan). qRT-PCR was carried out using LightCycler FastStart DNA MasterPLUS SYBR Green I (Roche Diagnostic Corporation, Prague, Czech Republic) on a Light Cycler 480 II apparatus (Roche Diagnostic Corporation). CYP1A1, CYP1A2, tyrosine aminotransferase (TAT) and GAPDH mRNAs were determined as described previously, [16]. Measurements were performed in triplicates. Gene expression was normalized to GAPDH as a housekeeping gene."}, "CYP1A2 mRNA": {"tested_on": "CYP1A2 mRNA", "experiment": "in vitro", "conditions": "human, 24 h", "description": "as §1, §2"}, "CYP1A1 protein": {"tested_on": "CYP1A1 protein", "experiment": "CYP1A1 protein in primary human hepatocytes (western blot)", "format": "cell-based", "conditions": "cultures HH52, HH54, Hep220770, 48 h", "experimental": "Cells were cultured in serum-free medium.\nTotal protein extracts were prepared from cells on 6-well plates. Cells were washed twice with ice-cold PBS and scraped into 1 ml of PBS. The suspension was centrifuged (4500 RPM/5 min/4°C) and the pellet was resuspended in 150 µl of ice-cold lysis buffer (150 mM NaCl; 10 mM Tris pH 7.2; 0.1% (w/v) SDS; anti-protease cocktail, 1% (v/v) Triton X-100; anti-phosphatase cocktail, 1% (v/v) sodium deoxycholate; 5 mM EDTA). The mixture was vortexed and incubated for 10 min on ice and then centrifuged (15000 RPM/13 min/4°C). Supernatant was collected and the protein content was determined by the Bradford reagent. SDS–PAGE gels (10%) were run on a BioRad apparatus according to the general procedure followed by the protein transfer onto PVDF membrane. The membrane was saturated with 5% non-fat dried milk for 1 h at room temperature. Blots were probed with primary antibodies against CYP1A1 (goat polyclonal, sc-9828, G-18, dilution 1∶500), CYP1A2 (mouse monoclonal, sc-374228, G-4, dilution 1∶2000), actin (goat polyclonal; sc-1616, 1–19, dilution 1∶2000), all purchased from Santa Cruz Biotechnology (Santa Cruz, CA, USA). Chemiluminescent detection was performed using horseradish peroxidase-conjugated secondary antibodies (Santa Cruz Biotechnology) and Western blotting Luminol kit (Santa Cruz Biotechnology)."}, "[3]": {"tested_on": "CYP1A1/1A2 catalytic activity (EROD)", "experiment": "EROD assay in primary human hepatocytes", "format": "cell-based", "conditions": "culture Hep220774, TCDD 5 nM, 24 h", "experimental": "Cells were treated for 24 h with tested compounds.\nThe cells were treated for 24 h with (+)-KET, (−)-KET and commercial rac-KET (1 µM, 30 µM, 50 µM), and with TCDD (5 nM) and vehicle (DMSO; 0.1% V/V). […] In the cytotoxicity assay, we found all forms of KET highly toxic against human hepatocytes at the concentration 50 µM."}, "CYP1A1 mRNA [4]": {"tested_on": "CYP1A1 mRNA", "conditions": "HepG2, TCDD 5 nM, 24 h, vs vehicle"}, "[5]": {"conditions": "female, culture HH52, TCDD 5 nM"}, "[6]": {"conditions": "female, culture Hep220770, TCDD 5 nM"}},
  "data": [
    {"molecule": "Clc1cc2c(cc1Cl)Oc1cc(Cl)c(Cl)cc1O2", "note": "[TCDD, 2,3,7,8-tetrachlorodibenzo-p-dioxin]", "values": [
      {"measurement": "average induction of AhR-dependent luciferase activity", "setting": "[1]", "result": 435, "unit": "fold"},
      {"measurement": "fold induction", "setting": "CYP1A1 mRNA [2]; [5]", "result": 53},
      {"measurement": "fold induction", "setting": "CYP1A1 mRNA [2]; [6]", "result": 1840},
      {"measurement": "fold induction", "setting": "CYP1A1 mRNA [2]; male, culture HH54, TCDD 5 nM", "result": 101},
      {"measurement": "fold induction", "setting": "CYP1A2 mRNA; [5]", "result": 79},
      {"measurement": "fold induction", "setting": "CYP1A2 mRNA; [6]", "result": 219},
      {"measurement": "fold induction", "setting": "CYP1A2 mRNA; male, culture HH54, TCDD 5 nM", "result": 30},
      {"measurement": "CYP1A1 protein induction (in words)", "setting": "CYP1A1 protein", "result": "drastic increase"},
      {"measurement": "induction of EROD activity", "setting": "[3]", "result": "approximately 15 fold"},
      {"measurement": "CYP1A1 mRNA induction", "setting": "CYP1A1 mRNA [4]", "result": "approximately 500 fold"}
    ]}
  ]
}
